From article PMC3361267 (Journal of Medicinal Chemistry, 2012)

Columns and labels:
[1] = cited from earlier work
OATP1B1 = biological target: T1, OATP1B1 (Homo sapiens, UniProt Q9Y6L6); assay: Transport kinetics of substrate uptake in OATP1B1-HEK293 cells; format: cell-based; conditions: OATP1B1 mediated uptake
T1 sequence (Q9Y6L6 1-691): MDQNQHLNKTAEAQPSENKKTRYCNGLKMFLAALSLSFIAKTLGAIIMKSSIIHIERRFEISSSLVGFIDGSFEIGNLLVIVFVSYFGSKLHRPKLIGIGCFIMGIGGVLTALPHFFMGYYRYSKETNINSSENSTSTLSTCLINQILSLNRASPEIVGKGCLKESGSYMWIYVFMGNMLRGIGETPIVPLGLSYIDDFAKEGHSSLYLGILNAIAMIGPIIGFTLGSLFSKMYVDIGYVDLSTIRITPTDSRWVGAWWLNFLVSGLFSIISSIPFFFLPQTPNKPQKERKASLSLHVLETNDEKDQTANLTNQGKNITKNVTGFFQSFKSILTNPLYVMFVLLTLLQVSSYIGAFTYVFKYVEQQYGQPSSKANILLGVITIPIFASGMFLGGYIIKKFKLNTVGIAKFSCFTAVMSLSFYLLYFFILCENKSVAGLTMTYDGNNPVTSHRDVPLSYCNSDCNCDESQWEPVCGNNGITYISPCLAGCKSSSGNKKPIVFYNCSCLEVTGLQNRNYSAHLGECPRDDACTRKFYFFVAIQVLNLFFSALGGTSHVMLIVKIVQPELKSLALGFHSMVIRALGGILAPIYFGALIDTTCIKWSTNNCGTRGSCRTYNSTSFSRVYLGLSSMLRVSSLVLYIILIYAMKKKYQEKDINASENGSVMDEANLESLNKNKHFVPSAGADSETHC

OATP1B3 = biological target: T2, OATP1B3 (Homo sapiens, UniProt Q9NPD5)
T2 sequence (Q9NPD5 1-702): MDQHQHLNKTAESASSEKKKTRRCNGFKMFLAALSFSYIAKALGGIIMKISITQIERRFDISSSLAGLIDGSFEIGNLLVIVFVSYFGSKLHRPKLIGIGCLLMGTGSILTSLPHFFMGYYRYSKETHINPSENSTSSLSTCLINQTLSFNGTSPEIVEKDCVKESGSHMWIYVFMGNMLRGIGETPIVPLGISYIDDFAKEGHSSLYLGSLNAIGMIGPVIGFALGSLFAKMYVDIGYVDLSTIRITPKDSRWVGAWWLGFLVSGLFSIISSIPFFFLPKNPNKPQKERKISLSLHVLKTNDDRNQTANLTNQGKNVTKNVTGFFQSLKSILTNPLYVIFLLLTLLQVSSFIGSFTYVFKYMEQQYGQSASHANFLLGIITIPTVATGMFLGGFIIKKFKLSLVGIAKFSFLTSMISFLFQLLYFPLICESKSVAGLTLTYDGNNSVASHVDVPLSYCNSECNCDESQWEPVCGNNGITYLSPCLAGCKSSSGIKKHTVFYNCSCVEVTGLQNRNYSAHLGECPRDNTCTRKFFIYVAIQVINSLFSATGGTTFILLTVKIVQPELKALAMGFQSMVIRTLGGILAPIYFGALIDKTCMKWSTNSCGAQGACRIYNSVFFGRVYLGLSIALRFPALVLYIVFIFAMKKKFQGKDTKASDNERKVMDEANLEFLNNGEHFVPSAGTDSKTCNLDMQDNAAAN

| SMILES | increase of atorvastatin AUC [1] | Km (OATP1B1) | Vmax (OATP1B1) | Vmax/Km (OATP1B3) |
| --- | --- | --- | --- | --- |
| CC[C@H]1OC(=O)[C@H](C)[C@@H](O[C@H]2C[C@@](C)(OC)[C@@H](O)[C@H](C)O2)[C@H](C)[C@@H](O[C@@H]2O[C@H](C)C[C@H](N(C)C)[C@H]2O)[C@](C)(OC)C[C@@H](C)C(=O)[C@H](C)[C@@H](O)[C@]1(C)O [clarithromycin, Clarithromycin] | 4.5 fold | – | – | – |
| C[C@]12CC[C@@H]3c4ccc(O)cc4CC[C@H]3[C@@H]1CC[C@@H]2O[C@@H]1O[C@H](C(=O)O)[C@@H](O)[C@H](O)[C@H]1O [estradiol-17β-glucuronide] | – | 12.2 ± 5.94 µM | 15.44 ± 3.44 pmol/mg protein/min | 0.86 μL/mg protein/min |
